What was measured:
[1] = test system: zebrafish embryos, transgenic line Tg(kdr:EGFP); test: Number of ISVs by fluorescence imaging in Tg(kdr:EGFP) zebrafish embryos; type: in vivo, zebrafish (D. rerio); conditions: exposure 24–96 hpf, 0.31–10 µM
Protocol: (§1) Fertilized and normally developed embryos were selected according to Kimmel et al. ([1995]) with a dissection microscope (Olympus SZx7-ILLT) at 1 hpf. Depending on experiment, exposure was started within 2–3 h post-fertilization (16–128 cell stages) or at 24 hpf. Exposure was conducted in rectangular 96-well microplates (Clear Polystyrene, flat bottom, Uniplate, Whatman, GE Healthcare) covered by a lid with a test volume of 400 µL of exposure media. For each replicate one embryo per well and 16 wells per concentration were assessed. Experiments were performed with at least two replicates on independent days and breeding.
To determine the number of ISVs in the trunk region, high-resolution images of 96 hpf-old zebrafish embryos were recorded using a Leica DM6B-Z microscope (Leica, Wetzlar, Germany) attached to the VAST imaging system, and a camera (Leica DFC9000 sCMOS, objective: HC APO L U-V-I 20x/0.50 WATER UV). A series of 20 images with a frame rate of 20 images per second and a 2 × 2 pixel binning was recorded in autofocus mode for each embryo. For the Tg(kdr:EGFP) strain, one additional fluorescence image was obtained using a fluorescent filter set (emission wavelength 540 nm, excitation filter BP 450–490) and a camera exposure time of 129 ms and a 2. × 2 binning in autofocus mode. […]

[2] = test system: zebrafish embryos, transgenic line Tg(kdr:EGFP); test: Number of ISVs by video subtraction in Tg(kdr:EGFP) zebrafish embryos; type: in vivo, zebrafish (D. rerio)
Protocol: as §1
To determine the number of ISVs in the trunk region, high-resolution images of 96 hpf-old zebrafish embryos were recorded using a Leica DM6B-Z microscope (Leica, Wetzlar, Germany) attached to the VAST imaging system, and a camera (Leica DFC9000 sCMOS, objective: HC APO L U-V-I 20x/0.50 WATER UV). A series of 20 images with a frame rate of 20 images per second and a 2 × 2 pixel binning was recorded in autofocus mode for each embryo. For the Tg(kdr:EGFP) strain, one additional fluorescence image was obtained using a fluorescent filter set (emission wavelength 540 nm, excitation filter BP 450–490) and a camera exposure time of 129 ms and a 2. × 2 binning in autofocus mode.
A series of MATLAB scripts (Supplement File ‘Workflow 3.m’ and ‘Workflow 4.m’) was used to convert the image series into a video and to visualize the blood vessel by applying a video subtraction approach (Figure SI1). Briefly, each video frame was subtracted from the average image of the whole image sequence and converted to a binary image by applying a Gaussian blur (σ = 5) and a threshold of 0.025 to obtain optimal contrast in binary images. Subsequently, the sum of all binary images was calculated. Due to movement of the blood cells the subtraction approach removed all parts from the image which were not moving resulting in an image of the blood vessels. This binary image of the blood vessel network in the zebrafish embryo tail was then processed with the FishInspector annotation software (version 1.70). […] The number of ISVs was obtained by application of a KNIME workflow to FishInspector annotation files. Subsequently concentration–response analysis was conducted using a KNIME workflow. The coefficient of variation (CV) of controls was calculated for both the subtraction and the fluorescence-based method by dividing the standard deviation of individual embryos with the control mean: CVControl=SD/Mean.
Concentration–response curves were fitted for lethality, heart rate, morphological features as previously described (Teixidó et al. [2019], [2022]). The assessment of lethality and morphological features was based on the percentage of embryos affected. Therefore, morphological endpoints were dichotomized, i.e. feature metrics were converted to the percentage of embryos deviating from controls. An embryo was considered to deviate when it was outside 1.5-fold of the standard deviation range of the mean of the control group. The control mean was determined by pooling control embryos across all experiments (n = 160) (available at git.ufz.de). For heart rate and angiogenesis (number of ISVs) the analysis was based on normalized values, i.e. for each experiment the values of the treatment were divided by the control value. The experiments were designed to calculate effect concentrations based on modelled curve fits. […]

Question: With `CN(C)c1ccc(C=C2C(=O)Nc3ccccc32)cc1` [SU4312] as the compound, how does the “EC10 (IC10) number of ISVs, fluorescent image” value [1] read?
Answer: 1170 nM

Question: What about the EC50 ([1]; read-out: EC50 number of ISVs, fluorescent image) of the same compound?
Answer: > 10000 nM

Question: What about the “EC10 (IC10) number of ISVs, subtraction image” value ([2]; Tg(kdr:EGFP), exposure 24–96 hpf, 0.31–10 µM) of the same compound?
Answer: 720 nM

Question: What about the EC50 ([2]; Tg(kdr:EGFP), exposure 24–96 hpf, 0.31–10 µM, read-out: EC50 (IC50) number of ISVs, subtraction image) of the same compound?
Answer: 2980 nM

Question: And the EC50 ([2]; arterial ISVs only, subtraction method, ± 95% confidence where given, read-out: aISVs EC50)?
Answer: 2580 ± 3120 nM

Question: What about the EC50 ([2]; subtraction method, ± 95% confidence where given, read-out: all ISVs EC50 (combined assessment)) of the same compound?
Answer: 2980 nM

Question: What about the EC50 ([2]; venous ISVs only, subtraction method, ± 95% confidence where given, read-out: vISVs EC50) of the same compound?
Answer: 750 ± 170 nM
